Laboratory results: ChEMBL document CHEMBL1201862, “PubChem BioAssay data set” (2004)
Calls of active or inactive are those of the source.

Tests used:
Wee1-like protein kinase = Wee1-like protein kinase (Homo sapiens, UniProt P30291); assay: G2/M cell cycle arrest in HeLa, late-stage follow-up, mechanism study for Wee1 degradation inhibitor project, FACS, panel member Wee1 Degradation (AID 2088)
[1] = target: G2/mitotic-specific cyclin-B1 (Homo sapiens, UniProt P14635); assay: G2/M cell cycle arrest in HeLa, late-stage follow-up, mechanism study for Wee1 degradation inhibitor project, FACS, panel member Cyclin B Degradation (AID 2088)
Chain of G2/mitotic-specific cyclin-B1 (P14635 whole entry): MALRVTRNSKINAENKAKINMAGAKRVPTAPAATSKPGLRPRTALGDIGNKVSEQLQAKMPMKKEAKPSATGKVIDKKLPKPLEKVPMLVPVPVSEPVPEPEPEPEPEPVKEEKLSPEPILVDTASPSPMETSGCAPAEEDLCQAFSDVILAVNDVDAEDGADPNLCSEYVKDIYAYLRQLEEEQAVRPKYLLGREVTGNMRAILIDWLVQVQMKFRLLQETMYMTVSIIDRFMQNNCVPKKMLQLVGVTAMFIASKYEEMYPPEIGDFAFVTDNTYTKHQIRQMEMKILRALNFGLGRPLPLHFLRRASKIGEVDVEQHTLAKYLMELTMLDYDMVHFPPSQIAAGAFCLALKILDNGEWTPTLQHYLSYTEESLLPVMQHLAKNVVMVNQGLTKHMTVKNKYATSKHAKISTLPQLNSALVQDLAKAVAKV

[2] = Luminescence Cell-Based Dose Response to Identify Activators of 5'UTR Stem-Loop Driven Prion Protein mRNA Translation in H4-C Neuroglioblastoma Cells. [Related pubchem assays: 1829 (Project Summary), 1814 (Primary HTS)]; type: functional
[3] = Luminescence Cell-Based Dose Response HTS to Identify Activators of Luciferase Translation or Activity in H4 […] Cells. [Related pubchem assays: 1829 (Project Summary), 1814 (Primary HTS)]; type: functional
H4 = assay: Luminescence Cell-Based Dose Response HTS to Identify Activators of 5'UTR Stem-Loop Driven Prion Protein mRNA Translation in H4 Neuroglioblastoma Cells. [Related pubchem assays: 1829 (Project Summary), 1814 (Primary HTS)]; type: functional; settings: Homo sapiens
[4] = Luminescence Cell-Based Dose Response to Identify Activators of Luciferase Translation or Activity in H4-C Neuroglioblastoma Cells. [Related pubchem assays: 1829 (Project Summary), 1814 (Primary HTS)]; type: functional
[5] = Luminescence Cell-Based Dose Confirmation to Identify Activators of 5'UTR Stem-Loop Driven Alpha-Synuclein mRNA Translation in H4 Neuroglioblastoma Cells. [Related pubchem assays: 1829 (Project Summary), 1814 (Primary HTS)]; type: functional
[6] = target: Cyclin-dependent kinase 5/CDK5 activator 1 (Homo sapiens, UniProt Q00535); assay: CDK5/p35 kinase inhibitors, dose response, biochemical, cherry-picked samples, set 2 (AID 504545)
Chain of Cyclin-dependent kinase 5/CDK5 activator 1 (Q00535 whole entry): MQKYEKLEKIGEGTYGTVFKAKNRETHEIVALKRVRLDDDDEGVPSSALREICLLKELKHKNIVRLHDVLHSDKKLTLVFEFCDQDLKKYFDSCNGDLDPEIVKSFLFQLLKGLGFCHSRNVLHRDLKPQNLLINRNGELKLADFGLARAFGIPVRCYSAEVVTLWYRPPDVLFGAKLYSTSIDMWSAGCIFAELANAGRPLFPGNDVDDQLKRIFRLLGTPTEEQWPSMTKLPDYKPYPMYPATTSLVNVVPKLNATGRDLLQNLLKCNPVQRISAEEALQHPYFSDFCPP
Chain of Cyclin-dependent kinase 5/CDK5 activator 1 (Q15078 whole entry, further chain): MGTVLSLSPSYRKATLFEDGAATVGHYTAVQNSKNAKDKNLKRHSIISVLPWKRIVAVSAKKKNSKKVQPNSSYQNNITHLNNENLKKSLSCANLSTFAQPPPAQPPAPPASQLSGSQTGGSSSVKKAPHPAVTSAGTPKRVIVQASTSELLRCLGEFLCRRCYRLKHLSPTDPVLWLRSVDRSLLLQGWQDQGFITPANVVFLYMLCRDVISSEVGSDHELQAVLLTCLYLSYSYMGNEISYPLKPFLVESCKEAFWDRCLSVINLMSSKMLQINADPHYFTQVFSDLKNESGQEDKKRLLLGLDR

[7] = target: FAD-linked sulfhydryl oxidase ALR (Homo sapiens, UniProt P55789); assay: inhibitors of human ALR sulfhydryl oxidase, dose response, biochemical, H2O2 detection, luminescence, cherry-pick (AID 493248)
Chain of FAD-linked sulfhydryl oxidase ALR (P55789 whole entry): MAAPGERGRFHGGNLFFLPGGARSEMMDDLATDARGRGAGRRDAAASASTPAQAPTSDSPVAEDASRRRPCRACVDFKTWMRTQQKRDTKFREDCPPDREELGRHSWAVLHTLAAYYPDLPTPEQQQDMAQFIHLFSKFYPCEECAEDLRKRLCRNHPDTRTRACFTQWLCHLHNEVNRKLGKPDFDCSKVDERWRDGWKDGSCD

[8] = target: T1, Rac GTPase-activating protein 1 (Homo sapiens, UniProt Q9H0H5); assay: MgcRacGAP GTPase-activating activity inhibitors, confirmation, biochemical, ADP Hunter fluorescence, primary and confirmatory (AID 624330); type: functional
T1 sequence (Q9H0H5 whole entry): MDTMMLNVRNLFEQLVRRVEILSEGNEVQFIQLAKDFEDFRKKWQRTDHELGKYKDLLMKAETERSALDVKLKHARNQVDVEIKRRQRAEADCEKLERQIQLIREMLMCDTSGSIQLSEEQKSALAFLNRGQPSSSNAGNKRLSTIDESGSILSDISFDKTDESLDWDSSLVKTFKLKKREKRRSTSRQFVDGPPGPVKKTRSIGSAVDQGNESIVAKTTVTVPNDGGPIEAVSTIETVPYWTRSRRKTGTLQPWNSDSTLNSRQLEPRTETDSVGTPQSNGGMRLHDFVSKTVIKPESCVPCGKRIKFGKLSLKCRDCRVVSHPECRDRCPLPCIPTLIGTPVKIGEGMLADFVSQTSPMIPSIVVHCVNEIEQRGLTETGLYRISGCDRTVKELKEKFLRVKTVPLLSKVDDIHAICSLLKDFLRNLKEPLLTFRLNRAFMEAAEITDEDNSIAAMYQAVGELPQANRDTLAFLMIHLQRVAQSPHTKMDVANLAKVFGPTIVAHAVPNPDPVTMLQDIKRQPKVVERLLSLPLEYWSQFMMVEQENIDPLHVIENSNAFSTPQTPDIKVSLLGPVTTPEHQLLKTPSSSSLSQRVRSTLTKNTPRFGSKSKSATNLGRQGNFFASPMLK

Vero [9] = assay: host cell cytotoxicity of antiviral hits, dose response, cytotoxicity control for West Nile virus antiviral project, secondary assay (AID 1650); type: functional; settings: Chlorocebus sabaeus
Vero [10] = assay: West Nile virus antiviral activity, cell-based, CPE readout (AID 1621); type: functional; settings: Chlorocebus sabaeus
[11] = target: Neurotensin receptor type 1 (Homo sapiens, UniProt P30989); type: functional;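 further: Image-based confirmatory dose-response assay measuring agonist activity at NTR1; NTR1-expressing U2OS osteosarcoma cells imaged for beta-arrestin GFP spot formation; agonist potency where compounds increase beta-arrestin recruitment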
Chain of Neurotensin receptor type 1 (P30989 whole entry): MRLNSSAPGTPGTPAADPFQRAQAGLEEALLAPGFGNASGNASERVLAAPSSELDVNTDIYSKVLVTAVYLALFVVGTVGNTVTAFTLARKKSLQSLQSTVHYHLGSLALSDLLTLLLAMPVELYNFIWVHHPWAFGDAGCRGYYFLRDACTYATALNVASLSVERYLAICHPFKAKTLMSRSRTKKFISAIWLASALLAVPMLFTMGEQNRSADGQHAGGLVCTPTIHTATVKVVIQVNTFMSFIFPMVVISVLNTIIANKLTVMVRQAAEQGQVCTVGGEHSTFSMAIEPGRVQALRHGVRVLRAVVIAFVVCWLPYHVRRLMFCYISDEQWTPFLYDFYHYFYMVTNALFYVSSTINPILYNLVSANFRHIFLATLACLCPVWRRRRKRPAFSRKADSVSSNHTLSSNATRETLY

[12] = target: T2, Short transient receptor potential channel 4 (Mus musculus, UniProt Q9QUQ5); assay: mouse TRPC4 channel activators, dose response, cell-based, HEK293 TRPC4/mu-opioid, Fluo-4 calcium (AID 434937); type: functional
T2 sequence (Q9QUQ5 whole entry): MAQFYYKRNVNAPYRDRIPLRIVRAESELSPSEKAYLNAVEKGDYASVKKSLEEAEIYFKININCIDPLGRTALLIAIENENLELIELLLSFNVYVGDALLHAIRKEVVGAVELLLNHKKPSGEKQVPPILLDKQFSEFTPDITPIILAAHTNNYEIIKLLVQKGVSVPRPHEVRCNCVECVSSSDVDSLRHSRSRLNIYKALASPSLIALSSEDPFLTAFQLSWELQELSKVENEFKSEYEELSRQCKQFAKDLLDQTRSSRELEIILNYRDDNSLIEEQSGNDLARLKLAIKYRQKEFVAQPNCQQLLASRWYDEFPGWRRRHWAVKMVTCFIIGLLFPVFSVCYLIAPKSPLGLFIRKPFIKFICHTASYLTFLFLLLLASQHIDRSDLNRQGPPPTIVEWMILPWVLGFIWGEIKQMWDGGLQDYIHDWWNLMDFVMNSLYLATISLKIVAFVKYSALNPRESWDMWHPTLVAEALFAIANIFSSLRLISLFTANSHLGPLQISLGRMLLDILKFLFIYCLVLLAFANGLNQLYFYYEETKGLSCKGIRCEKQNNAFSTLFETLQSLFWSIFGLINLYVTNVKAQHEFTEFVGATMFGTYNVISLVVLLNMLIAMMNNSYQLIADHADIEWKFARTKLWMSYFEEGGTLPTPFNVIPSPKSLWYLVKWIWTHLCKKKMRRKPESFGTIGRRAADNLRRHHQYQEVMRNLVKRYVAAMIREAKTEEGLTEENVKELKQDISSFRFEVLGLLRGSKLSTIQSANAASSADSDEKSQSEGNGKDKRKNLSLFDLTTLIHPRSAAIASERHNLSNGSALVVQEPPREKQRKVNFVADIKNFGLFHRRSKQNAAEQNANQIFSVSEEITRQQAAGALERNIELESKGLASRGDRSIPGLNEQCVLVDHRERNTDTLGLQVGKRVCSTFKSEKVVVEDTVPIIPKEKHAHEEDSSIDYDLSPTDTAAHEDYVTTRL

INS1 = assay: beta cell apoptosis inhibitors, cytokine rescue, dose response, luminescence, retest (AID 449756); type: functional, cell-based; settings: Rattus norvegicus;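 further: cell death triggered by IL-1 beta plus TNF-alpha plus IFN-gamma mixture; protective hits raise ATP signal compared with cytokine alone wells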
[13] = Shn3 3'UTR reporter inhibitors, dose response, cell-based, Clone20 osteoblasts, firefly luciferase, cherry-picked (AID 624132); type: functional;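 further: firefly luciferase luminescence from reporter carrying the Shn3 3'UTR in osteoblasts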
[14] = control 3'UTR Renilla luciferase suppression, dose response, counter-screen for Shn3 inhibitor project, cell-based, Clone20-Shn3RL, cherry-picked (AID 624133); type: functional
Paired box protein Pax-8 = Paired box protein Pax-8 (Homo sapiens, UniProt Q06710); assay: inhibitors of PAX8-driven TPO luciferase reporter, dose response, RMG-I cells, cherry-pick (AID 687027); type: functional, cell-based;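 further: luciferase reporter driven by Pax8 target thyroperoxidase promoter measured by SteadyGlo luminescence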
Chain of Paired box protein Pax-8 (Q06710 whole entry): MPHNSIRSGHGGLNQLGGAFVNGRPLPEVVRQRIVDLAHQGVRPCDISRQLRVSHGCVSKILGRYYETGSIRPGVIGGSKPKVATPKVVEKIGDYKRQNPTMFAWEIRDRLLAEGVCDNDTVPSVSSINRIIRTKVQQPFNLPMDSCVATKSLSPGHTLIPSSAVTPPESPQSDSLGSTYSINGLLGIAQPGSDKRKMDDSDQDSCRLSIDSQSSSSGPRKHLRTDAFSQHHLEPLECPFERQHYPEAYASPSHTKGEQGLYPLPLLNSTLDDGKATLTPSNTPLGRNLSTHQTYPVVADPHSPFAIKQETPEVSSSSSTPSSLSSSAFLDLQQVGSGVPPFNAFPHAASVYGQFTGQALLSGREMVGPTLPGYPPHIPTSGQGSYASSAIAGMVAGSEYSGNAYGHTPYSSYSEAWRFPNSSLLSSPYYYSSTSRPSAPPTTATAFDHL

[15] = non-specific cell cytotoxicity, dose response, cytotoxicity control for PAX8 inhibitor project, plate reader, dry powder samples (AID 743021); type: functional, cell-based

Chain of Wee1-like protein kinase (P30291 whole entry): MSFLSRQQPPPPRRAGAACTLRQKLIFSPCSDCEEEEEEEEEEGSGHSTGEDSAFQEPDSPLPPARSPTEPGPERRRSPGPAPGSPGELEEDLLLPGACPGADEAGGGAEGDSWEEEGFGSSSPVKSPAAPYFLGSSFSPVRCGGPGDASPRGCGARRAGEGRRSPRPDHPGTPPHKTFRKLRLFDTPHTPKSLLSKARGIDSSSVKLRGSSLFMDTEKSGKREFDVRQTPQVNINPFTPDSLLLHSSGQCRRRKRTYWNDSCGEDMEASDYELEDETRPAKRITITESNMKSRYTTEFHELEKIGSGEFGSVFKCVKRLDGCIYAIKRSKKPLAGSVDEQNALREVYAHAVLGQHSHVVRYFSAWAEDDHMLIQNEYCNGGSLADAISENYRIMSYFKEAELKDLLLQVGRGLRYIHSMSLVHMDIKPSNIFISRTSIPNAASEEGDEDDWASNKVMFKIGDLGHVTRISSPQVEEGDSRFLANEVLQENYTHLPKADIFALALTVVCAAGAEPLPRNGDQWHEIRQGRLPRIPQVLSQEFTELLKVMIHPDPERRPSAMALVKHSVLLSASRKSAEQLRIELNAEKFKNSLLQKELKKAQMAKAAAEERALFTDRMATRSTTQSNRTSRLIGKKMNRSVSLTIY

Structure (SMILES): Cc1cc(O)nc(-n2nc(C)cc2NC(=O)c2ccc(Br)cc2)n1
- EC50 (Wee1-like protein kinase): > 49.7 µM (inactive)
- EC50 [1]: > 49.7 µM (inactive)

Structure (SMILES): Oc1ccc(/C=N/Nc2ccc(C(F)(F)F)cn2)cc1
- EC50 [2]: 0.998 µM (active)
- EC50 [3]: < 0.1 µM (inconclusive)
- EC50 (H4): > 120 µM (not active)
- EC50 [4]: 0.329 µM (active)
- EC50 [5]: 0.35 µM (active)
- AC50 [6]: 19.9 µM (active)
- AC50 [7]: 37.5 µM (active)
- IC50 [8]: 28.9 µM (active)

Structure (SMILES): CC[C@@H](C(=O)[C@@H](C)[C@@H](O)[C@H](C)CCc1ccc(C)c(O)c1C(=O)O)[C@H]1O[C@](CC)([C@H]2CC[C@](O)(CC)[C@H](C)O2)C[C@@H]1C [LASALOCID A SODIUM]
- CC50 (Vero [9]): 19.4 µM (active)
- IC50 (Vero [10]): 8.3 µM (active)
- EC50 [11]: 30.5 µM (inactive)
- EC50 [12]: 5.96 µM (active)
- AC50 (INS1): 2.64 µM (active)
- AC50 [13]: 7.93 µM (active)
- AC50 [14]: 8.23 µM (active)
- AC50 (Paired box protein Pax-8): 3.52 µM (active)
- AC50 [15]: 40.7 µM (active)
